Test results as given in patent publication US20130281512A1, “AGENTS FOR TREATING DISORDERS INVOLVING MODULATION OF RYANODINE RECEPTORS” (LES LABORATOIRES SERVIER, priority 2012, published 2013).

Key:
rat hepatocytes = assay: Metabolic stability in rat hepatocytes; assay type: in vitro ADME
Experimental: Compound solubilization: Stock solutions were made in DMSO, and working solutions in William medium containing 1/10 rat plasma or 1/4 human plasma.
Metabolic stability determination: Compounds were incubated at 10^−7 M with isolated hepatocytes (6E+5 cells/ml for rat hepatocytes and 4E+5 cells/ml for human hepatocytes) at 37° C. in plasma from the same species diluted in Wiliams medium (1/10 dilution for rat and 1/4 dilution for human). Sampling times were performed at 0, 10, 20, 30, 60 and 120 min and enzymatic reaction stopped with methanol (v/v). Proteins were precipitated by centrifugation and the supernatant was analyzed by LC/MS/MS. Clint expressed as ml/min/g protein were calculated as for hepatic microsomes using a ratio of 0.134 mg protein/ml for 4E+5 cells/ml for human and 0.201 mg protein/ml for 6E+5 cells/ml for rat. The presence of the reference drug and the potential metabolite was checked by LC/MS/MS during the assay in each sample.

mdx mice = assay: Muscle function in mouse muscular dystrophy model (mdx): voluntary wheel activity, EDL specific force; assay type: in vivo
Experimental: Voluntary activity on wheel, body weight, and average water consumption were measured in the first 3 weeks. Specific muscle force was measured after 4 weeks of treatment, at the end of the study.
Distance traveled (Km/day) over a 24 hr period was analyzed as an index of improved functional activity (see, DMD_M.2.1.002 SOP at http://www.treat-nmd.eu/). At the conclusion of the study, Extensor digitorum longus (EDL) muscle was isolated for muscle force analysis as further described hereinbelow. Blood was collected from each mouse by retro-orbital bleeds at the end of the study (after end of dark cycle—about 7 AM) to assess drug plasma concentrations. Experiments were blinded.
At the end of the study, EDL muscle was dissected from hind limbs for isometric force analysis using the 407A Muscle Test System from Aurora Scientific (Aurora, Ontario, Canada). A 6-0 suture were tied to each tendon and the entire EDL muscle, tendon to tendon, was transferred to a Ragnoti bath of O2/CO2 (95%/5%) bubbled Tyrode solution (in mM: NaCl 121, KCl 5.0, CaCl2 1.8, MgCl2, NaH2PO4, NaHCO3 24, and glucose 5.5). Using the sutures, one tendon was tied vertically to a stainless steel hook connected to a force transducer The other sutured tendon was clamped down into a moving arm on the Aurora system. The EDL muscle was stimulated to contract using an electrical field between two platinum electrodes. At the start of each experiment, muscle length was adjusted to yield the maximum force. Force-frequency relationships were determined by triggering contraction using incremental stimulation frequencies (5-250 Hz for 200 ms at suprathreshold voltage). Between stimulations the muscle was allowed to rest ˜3 min. At the end of the force measurement, the length (Lo) of the EDL muscle while sutured in the Aurora system was measured excluding the tendons. The EDL muscle was then removed from the system and weighed after clipping the end tendons and sutures off. The EDL muscle was then frozen in liquid nitrogen. The cross-sectional area (mm^2) of the EDL muscle was calculated by dividing the EDL muscle weight by the EDL muscle length and the mammalian muscle density constant of […] (Yamada, T., et al. Arthritis and rheumatism 60:3280-3289). To determine EDL specific force (kN/m^2), the absolute tetanic force was divided by the EDL muscle cross-sectional area.
For statistical analysis of distance traveled, change from baseline was calculated for each day by subtracting the baseline value (defined as the mean of the two measurements obtained on Day −1 and Day −2) from each post dose assessment. Change from baseline was then statistically analyzed with a repeated measures analysis of variance model with fixed effects for treatment, day and treatment by day interaction. Baseline was included as a covariate and mouse was included as a random effect. The most appropriate covariance structure was determined through investigation of the Akaike's Information Criterion (AIC) and Bayesian Information Criterion (BIC). The covariance structures investigated were autoregressive, compound symmetry, unstructured, and toeplitz. The optimal covariance structure selected was compound symmetry. From the model, point estimates and associated 95% confidence intervals (CI) for the difference in change from baseline between each ARM210 treated mice group and vehicle treated group (for both mdx and C57BL/6 mice) were obtained for each day, each week, and the entire assessment period from Day 1 to Day 19. As this study is exploratory in nature, no adjustments in multiple comparisons were made.
Specific force was analyzed using a repeated measures analysis of variance model with fixed effects for treatment, frequency and treatment by frequency interaction and mouse as a random effect. Similar to the analysis described above, the optimal covariance structure was chosen from among autoregressive, compound symmetry, unstructured, and toeplitz. […]

[1] = system: ischemia-reperfusion induced heart failure; assay: Model of chronic post-ischemic heart failure in rat (ischemia-reperfusion injury); assay type: in vivo
Experimental: Chronic heart failure was induced in male wistar rats (224-240 g, 10-11 weeks of age) by ischemia-reperfusion (I/R) injury. For I/R protocol, the left anterior descending (LAD) coronary artery was occluded for 1 h. Drug treatment (5 mg/kg/d or 10 mg/kg/d in drinking water) was initiated 1 week after reperfusion and was maintained for a 3 month study period. […] Cardiac specimens were also analyzed to assess hypertrophy and collagen content. The study design is depicted in FIG. 3. Experiments were performed in a blinded manner. On parameters measured over time, comparison of Sham versus Vehicle and comparison of drug treatments are analyzed by 2 way ANOVAs with repeated measures. On parameters measured at sacrifice and morphometry, comparisons of Sham versus Vehicle are analyzed by t-test and comparisons of drug treatments by 1-way ANOVA followed by Dunnett test.

[2] = mdx and WT mice, drinking water
[3] = 5 and 10 mg/kg/d in drinking water, one to three months, vs vehicle
[4] = 5 and 10 mg/kg/d, invasive hemodynamics at 3 months, vs vehicle

In the case of COc1ccc2c(c1)CN(Cc1ccc(C(=O)O)cc1)CCS2 [Compound 1, 4-((7-Methoxy-2,3-dihydrobenzo[f][1,4]thiazepin-4(5H)-yl)methyl)benzoic acid], the MF rat % (rat hepatocytes) is reported as 90%, the Clint (rat hepatocytes; 6.00E+05 cells/ml, 10^-7 M) is reported as 5 ml/min/gprot and the body weight (mdx mice; [2]) is reported as “did not affect”. The water consumption (mdx mice; [2]) was “No dose-dependent effects”, the “specific muscle force (EDL)” value (mdx mice; mdx mice, 50 mg/kg/d, stimulation frequencies of 150 Hz and above, P<0.05) was “statistically significant increase” and the “specific force of EDL muscle” value (mdx mice; mdx mice, 5, 10 and 50 mg/kg/d, 4 weeks) was “increased specific force in mdx muscle dose-dependently”. For the same compound, the “distance traveled on voluntary wheel” value (mdx mice; mdx mice, 10 and 50 mg/kg/d (target dose) sodium salt in drinking water, day 1 to day 19, vs vehicle, P<0.001) was “significantly longer distances”, the “time to treatment effect on wheel activity after treatment initiation” value (mdx mice; mdx mice, drinking water) was 2 to 3 days and the “systolic and diastolic cardiac function” value ([1]; 5 mg/kg/d in drinking water, 3 months) was “beneficial effects”. The interstitial collagen content ([1]; 5 and 10 mg/kg/d in drinking water, 3 months, vs vehicle) was “reduced”, the “Ejection Fraction (EF)” value [1, 3] was “significantly increased” and the “LVEDV (LV end diastolic volume)” value [1, 3] was “decreased”. For the same compound, the “LVESV (LV end systolic volume)” value [1, 3] was “decreased”, the “body weight (BW)” value ([1]; 5 and 10 mg/kg/d, 3 months) was “No effects” and the “hypertrophy (LV weight)” value ([1]; 5 and 10 mg/kg/d, 3 months) was “No effects”. For the same compound, the infarct size ([1]; 5 and 10 mg/kg/d, 3 months) was “No effects”, the LV systolic pressure ([1]; 5 and 10 mg/kg/d, invasive hemodynamics at 3 months) was “no statistically significant change” and the “LV dP/dt max” value [1, 4] was “preservation”. The “LV dP/dt min” value [1, 4] was “preservation”.
